In one test the test system is pro-FSAP in WT/MI plasma. Briefly: Substrate turnover in WT/MI plasma. The format is biochemical, human. Particulars: WT/MI citrate plasma 1:12; 25 μM (Fig 6A). Here is the method: Figure 6 Pro-FSAP activation and clotting in plasma by NNKC9/41: (A) citrate plasma (1:12 dilution) from donors with WT/WT, WT/MI, and MI/MI genotypes and WT-FSAP-deficient plasma (FSAP-DP) were compared. Substrate turnover was monitored after addition of NNKC9/41 or the Ser–Ser linear peptide (25 μM each). Results are shown as mean + range of duplicate wells. (B) Pooled prothrombin-deficient citrated plasma (1:5 dilution) was recalcified with 10 mM CaCl2 and incubated with NNKC9/41 or scrambled control peptide (0–25 μM each) for 60 min at 37 °C in the presence or absence of the FSAP-inhibitory MA-FSAP-38C7 (5 μg/mL). Initiation of clotting was achieved by adding the tissue factor/phospholipid and prothrombin complex concentrate. Clotting time was measured as diluted prothrombin time (dPT) in seconds. Data are the mean of three independent experiments. The relative dPT in % of the untreated control is presented as mean ± standard error (SE) (*p <0.05, two-way analysis of variance (ANOVA) and Bonferroni post-test).
(§1) Human citrate plasma (0.38% w/v) or hirudin plasma (25 μg/mL Lepirudin) was obtained from five healthy donors. […] Hydrolysis of the fluorogenic substrates was measured using a Synergy HI plate reader with excitation at 320 nm and emission at 460 nm at 37 °C for 60 min. The maximal velocity was calculated from the linear part of the progress curve. […]

Test [1] concerns the target T1, pro-FSAP in human plasma (Homo sapiens, UniProt Q14520).
T1 construct: from tissue; host or cells: human hirudin or citrate plasma from healthy donors, diluted 1:12
Briefly: Activation of endogenous pro-FSAP in plasma, fluorogenic substrate turnover. The format is biochemical. Here is the method: Human citrate plasma (0.38% w/v) or hirudin plasma (25 μg/mL Lepirudin) was obtained from five healthy donors. Plasma was diluted at 1:12 and mixed with various test substances that potentially activate or inhibit pro-FSAP. Ac–Ala–Lys–Nle–Arg–AMC (amino–methyl–coumarin) was used as a sensitive and specific substrate for FSAP.[35] Hydrolysis of the fluorogenic substrates was measured using a Synergy HI plate reader with excitation at 320 nm and emission at 460 nm at 37 °C for 60 min. The maximal velocity was calculated from the linear part of the progress curve. In limited experiments, the second-generation fluorogenic FSAP substrate (Ac–Pro–DTyr–Lys–Arg–AMC)[34] was used. Pro-uPA activation, formation of FSAP−α2-antiplasmin, and western blotting with anti-FSAP antibodies were also used to monitor pro-FSAP activation.

Test [2] concerns the target T1, pro-FSAP in human plasma. The experiment in a line: Immunocapture of pro-FSAP from plasma and conversion of pro-uPA to uPA. The format is biochemical. Particulars: hirudin plasma 1:12, 1 h at 37 °C; NNKC9/41 0–25 μM, histones 0–25 μg/mL; PNAPEP1344; three donors (Fig 4B). The method, then:
Figure 4 Comparison of different methods to measure pro-FSAP activation in plasma: (A) hirudin plasma (1:12 dilution) was incubated with histones (0–25 μg/mL), NNKC9/41, or its Ser–Ser linear control (0–25 μM) and the fluorogenic substrate turnover (Ac–Ala–Lys–Nle–Arg–AMC) was monitored. (B) From the same experiment as in (A) after 1 h incubation at 37 °C, samples were captured on anti-FSAP coated wells and the conversion of added pro-uPA to active uPA was measured by determining the turnover of the chromogenic substrate PNAPEP1344 (25 μM). (C) From the same experiment as in (A) after 1 h incubation at 37 °C, samples were captured on anti-FSAP coated wells and α2-antiplasmin antibody was used to detect the formation of FSAP−α2-antiplasmin complexes. […] In (F), the samples with MA-FSAP-570 were not analyzed since this antibody would interfere in the sandwich ELISA. […]
as §1

A further test relates to factor XII. The experiment in a line: Specificity towards pro-enzymes: factor XII. The format is biochemical. The settings on record: Factor XII 100 nM; peptide 0-50 μM; CS31 (Fig S7). Here is the method:
Fig S7. Specificity of NNKC9/41 towards other pro-enzymes: Zymogens and their respective active enzymes were incubated with NNKC9/41 or Ser-Ser linear peptide (0-50 μM) and the enzyme activity was monitored using respective chromogenic substrates. Activity of Factor XII(100 nM) and Factor XIIa (20 nM) was measured with the substrate CS31 (1000 µM). Pro-thrombin (100 nM) and thrombin (20 nM) […]
(§2) Bend, IN, USA) except plasminogen and FSAP, which were isolated in house; and pro-uPA was from Grünenthal (Stolberg, Germany). All chromogenic substrates were from Hyphen Biomed (Neuville Sur Oise, France). Experiments were carried out in TBS with Tween-20 (0.1 % wt/ vol) BSA (0.3% wt/vol) and CaCl2 (2 mM). Absorbance at 405 nm was measured over time and the enzyme activity is depicted was measured in duplicates (mean + or -range) and similar results were obtained in 3

A further test relates to pro-urokinase. Briefly: Specificity towards pro-enzymes: pro-urokinase. The format is biochemical. The settings on record: pro-uPA 100 nM; peptide 0-50 μM; PNAPEP 1344 (Fig S7). The method, then:
Fig S7. […]
µM). Pro-uPA (100 nM) and uPA (20 nM) with PNAPEP 1344 (250 µM). Factor X (50 […]
as §2

For another test, the system named is plasminogen. Briefly: Specificity towards pro-enzymes: plasminogen. Particulars: plasminogen 50 nM; peptide 0-50 μM; CS41; duplicates, 3 experiments (Fig S7). The format is biochemical. Here is the method: Fig S7. […]
as §2

The subject of the next test is plasmin. The experiment in a line: Specificity: plasmin. The format is biochemical. Particulars: plasmin 20 nM; peptide 0-50 μM; CS41 (Fig S7). The method, then:
Fig S7. […]
as §2

Entries after “also recorded” stand apart in the source; their conditions may differ.

T1 sequence (Q14520 24-560): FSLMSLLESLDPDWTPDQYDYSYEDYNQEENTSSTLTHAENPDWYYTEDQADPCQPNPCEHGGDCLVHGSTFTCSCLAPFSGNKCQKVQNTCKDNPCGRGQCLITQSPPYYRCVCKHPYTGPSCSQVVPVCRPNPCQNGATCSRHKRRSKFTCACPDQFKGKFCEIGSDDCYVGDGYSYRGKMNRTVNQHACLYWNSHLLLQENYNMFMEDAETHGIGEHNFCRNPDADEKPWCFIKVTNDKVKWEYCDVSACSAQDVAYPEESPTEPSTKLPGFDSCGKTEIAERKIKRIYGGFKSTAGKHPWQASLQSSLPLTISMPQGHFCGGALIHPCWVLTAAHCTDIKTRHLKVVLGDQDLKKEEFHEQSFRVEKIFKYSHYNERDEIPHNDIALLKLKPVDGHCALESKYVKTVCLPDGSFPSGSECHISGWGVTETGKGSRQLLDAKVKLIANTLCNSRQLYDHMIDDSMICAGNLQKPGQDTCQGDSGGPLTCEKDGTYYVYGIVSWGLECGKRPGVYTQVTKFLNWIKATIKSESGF

For CRGAMWMYKRC [NNKC9/41], the substrate turnover result in the test with pro-FSAP in WT/MI plasma was “low turnover”. For the same sequence, on pro-FSAP in human plasma [1] (citrate plasma 1:12, recalcified, data not shown), the “inhibitory effect of citrate after recalcification” value is listed as “reversed by recalcification”. Also, the “effect in citrate plasma 1:12” value on pro-FSAP in human plasma [1] (citrate plasma 1:12, 10 μM, 3 donors (Fig S5)) is given as “weak”. For the same sequence, on pro-FSAP in human plasma [1] (hirudin plasma 1:12, NNKC9/41 0–25 μM, histones 0–25 μg/mL, three donors (Fig 4A)), the “fluorogenic substrate turnover vs histones” value is reported as “stronger effect than histones”. Further, the “pro-FSAP activation in plasma” value on pro-FSAP in human plasma [1] (hirudin plasma 1:12, peptides 25 μM, histones 25 μg/mL, Ac–Ala–Lys–Nle–Arg–AMC, duplicate wells (Fig 1D)) was “robust activation of pro-FSAP comparable to that with histones”. In addition, the “pro-FSAP activation in hirudin plasma” value at pro-FSAP in human plasma [1] (hirudin plasma, dilutions 1:2 to 1:12, 10 μM, 3 donors (Fig S5)) is “activated pro-FSAP in plasma”. For the same sequence, the “lag time of pro-FSAP activation” value on pro-FSAP in human plasma [1] (plasma, compared to histones (Fig 1D)) is reported as above 15 min. For the same sequence, the pro-uPA conversion entry at pro-FSAP in human plasma [2] is given as “weaker than histones; also recorded: concentration-dependent effect”. The effect on activity entry with factor XII, in the test with pro-urokinase, with plasminogen and in the test on plasmin was “did not influence the activity” throughout.

Source of the values: article PMC9486805, “Identification of a Phage Display-Derived Peptide Interacting with the N-Terminal Region of Factor VII Activating Protease (FSAP) Enables Characterization of Zymogen Activation” (ACS Chemical Biology, 2022).
